Like-named read-outs stand apart in the source and are kept apart here.
Experiments:
[1] = tested on: HIV-1 (MT4); assay: Anti-HIV effect on MT4 cells, virus antigen expression (immunoenzymatic method); format: cell-based
From the text: The virus used was HIV-1 which had been obtained from Professor Montagnier of the Pastear Institute, France. The virus titer used in the experiment was 1×10^4 TCID50 /ml. The cell culture used was CEM cell line which was cultivated in the HIV laboratory of Institute of Virology, Chinese Academy of Preventive Medicine, for cultivation storage of HIV-1.
The compounds used in the experiment were qinghaosu, dihydroqinghaosu, Artesunate, Artemether, dihydroqinghaosu-methylcarbamate, dihydroqinghaosu-benzenecarbamate, qinghaosu-morpholinyl propylether maleate, dihydroqinghaosu-diethyl amino ethyl ether maleate, deoxyqinghaosu-morpholinyl ethyl ether maleate, qinghaosu-morpholinyl propanol ether maleate, qinghaosu-3,5-dimonpholinyl methyl-4-hydroxy benzyl ether maleate, dihydroqinghaosu-m-chlorobenzoate, qinghaosu-3-pyrrolidinylmethyl-4-hydroxybenzoate oxalate, and qinghaosu-3-morpholinylmethyl-4-hydroxybenzoate oxalate. […] The concentration of the original solution of these compounds were all 1 mg/ml.
(§1) a. Freshly cultured MT4 cells (5×10^5 /ml) were co-cultivated with the virus fluid (10^3 TCID50 /ml) in a CO2 incubator at 37° C. for 1-1.5 hours. RPMI 1640 complete medium (containing 10% Bovine serum and antibiotics, such as penicillin) was used to wash the unbound virus.
(§2) Complete medium was added to correct the concentration for use.
(§3) The experiment was carried out on the plates with 96 wells. 0.1 ml of the above-mentioned infected MT4 cell suspension was added into each well, and then 0.1 ml of various concentrations of the drugs were added. […] Each concentration of the drugs was added into two wells. Both the experiment group and the control group were incubated in a CO2 incubator at 37° C. The drug solution were changed 3 days later, and the following observations were carried out 6 days afterwards.
b. Observation on the growth situation of cells. Trypan blue dye was used to observe the quantity of live cells in each group.
(§4) c. Determination of the virus antigen expression. The immunoenzymatic method was used to examine the virus antigen expression. Cells from each group were separately smeared in two wells. They were fixed with cold acetone, HIV-positive serum was dropped into the wells. After incubated in a CO2 incubator at 37° C. for 30 minutes, they were washed with PBS for 3 times. Enzyme-labelled SPA was dropped into the wells. They were incubated in the same condition for 30 minutes, washed with PBS for 3 times, and then put in substrate solution to stain for 2-3 minutes, washed with distilled water, and observed under microscope. Normal cells were colorless, whereas virus-carrying cells appeared browrish red.
The mark used were as follows:
The experiment was repeated two to three times.
The concentration of the original fluid of these compounds were all 1 mg/ml. 0.1 ml was taken and added into 0.1 ml of virus-carrying cell suspension, thus the reaction concentrations were as follows: in the original fluid group, 0.1 mg/0.2 ml, i.e., 0.5 mg/ml; in 1×10^-1group, 0.05 mg/ml; in 1×10^-2 group, 0.005 mg/ml; in 1×10^-3 group, 0.0005 mg/ml, i.e., 0.5 μg/ml; and on the analogy of this.

[2] = Subacute toxicologic study; details: in vivo, read-out: basic safe dosage
[3] = Acute toxicity in mice; format: in vivo; details: for LD50: mouse, in vivo, po
Experimental: Animals: Hybrid swiss strain mice (provided by Animal House of Institute of Chinese Mateia Media, China Academy of Traditional Chinese Medicine), 20-22 grams, less than 6 weeks age of both sexes fed in laboretory for 3-5 days observation and a random taking food and drinking.
Drugs: Dihydroqinghaosu-methylcarbamate and dihydroqinghaosu-benzenecarbamate.
Above two drugs in powder form were dissolved into peanut oil. The biggest dose were 2000 mg/kg and 2161 mg/kg respectively. The distances between two dose groups were 0.7 and 0.68 respectively, with 5 dose groups each drugs.
Method: The mice were given single dose of above compound respectively intragastrically, the acute intoxication manifestrations were observed the LD value (LD5, LD50 and LD95) and B value were determined by three days mortality.

[4] = tested on: U937 HIV-1; assay: Inhibition effect on HIV-1 infected U937 cells (macrophage cell line), HIV antigen test (IE); format: cell-based; details: U937 HIV-1; 50 μg/ml
Experimental: as §1, §2, §3, §4
Furthermore, a part of the compounds according to the present invention were used to test their inhibition effect on U937 cell line (macrophage cell line)according to the methods in Experiment 1.

[5] = tested on: Toxoplasma Gendei; assay: Antitoxoplasma effect in vitro in BALB/C mouse macrophages; format: cell-based; details: for Infected rate of macrophages / No. of parasites in 100 macrophages / inhibition at 50 µg/mL / inhibition at 100 µg/mL / inhibition at 200 µg/mL: 48 hours; for Infected rate of macrophages: control 75.60; for No. of parasites in 100 macrophages: control 544.00; for inhibition at 50 µg/mL / inhibition at 100 µg/mL / inhibition at 200 µg/mL: Toxoplasma, Macrophage
Experimental: In vitro incubation was used in the experiment. Macrophages were taken from intraperitoneal of the uninfected BALB/C mice (obtained from Universite Pierre et Marie Curie), centrafuged, washed and counted. Around 1.28×10^5 cells was added into each culture dish, incubated at 37° C. for 3 hours to let the cells to be adherented, then infected by parasites (Toxoplasma Gendei, obtained from Universite Pierre et Marie Curie), in which parasite number was 1×106, so that there were 5 organisms per macrophage. The dishes were incubated at 37° C. for 48 hours, different concentration, (i.e., 50 μg/ml, 100 μg/ml, 200 μg/ml) of the compound according to the present invention was added in. In a control group, no drug was added in. After being cultured at 37° C. for 48 hours, dishes of compound treated groups and control group were colorated. Under microscope, the number of infected and uninfected macrophages in each dishes were counted and to calculated infected rate of macrophage and to count the number of parasites in 100 macrophages.

[6] = F + M, single dose intragastrically
[7] = F, single dose intragastrically
[8] = M, single dose intragastrically

CNC(=O)OC1OC2OC3(C)CCC4C(C)CCC(C1C)C24OO3 (stereo not drawn) [Dihydroqinghaosu-methylcarbamate, Dihydroqinghaosu-Methylcarbamate]
effect on HIV-1 (MT4), virus antigen expression ([1]; 1 × 10^-1 (50 μg/ml)): - (positive cells were not seen in the whole well)
effect on HIV-1 (MT4), virus antigen expression ([1]; 1 × 10^-2 (5 μg/ml)): - (positive cells were not seen in the whole well)
effect on HIV-1 (MT4), virus antigen expression ([1]; 1 × 10^-3 (0.5 μg/ml)): - (positive cells were not seen in the whole well)
effect on HIV-1 (MT4), virus antigen expression ([1]; 1 × 10^-4 (0.05 μg/ml)): - (positive cells were not seen in the whole well)
inhibition on HIV ([1]; according to Table 1): distinct inhibition on HIV
NOAEL [2]: 30.2 mg/kg/day
Death distribution of mice, exp./death ([3]; 462 mg/kg, female): 5/0
Death distribution of mice, exp./death ([3]; 462 mg/kg, female + male): 10/1
Death distribution of mice, exp./death ([3]; 462 mg/kg, male): 5/1
Death distribution of mice, exp./death ([3]; 680 mg/kg, female): 5/2
Death distribution of mice, exp./death ([3]; 680 mg/kg, female + male): 10/2
Death distribution of mice, exp./death ([3]; 680 mg/kg, male): 5/1
Death distribution of mice, exp./death ([3]; 1000 mg/kg, female): 5/2
Death distribution of mice, exp./death ([3]; 1000 mg/kg, female + male): 10/4
Death distribution of mice, exp./death ([3]; 1000 mg/kg, male): 5/2
Death distribution of mice, exp./death ([3]; 1470 mg/kg, female): 5/2
Death distribution of mice, exp./death ([3]; 1470 mg/kg, female + male): 10/5
Death distribution of mice, exp./death ([3]; 1470 mg/kg, male): 5/3
Death distribution of mice, exp./death ([3]; 2161 mg/kg, female): 5/5
Death distribution of mice, exp./death ([3]; 2161 mg/kg, female + male): 10/10
Death distribution of mice, exp./death ([3]; 2161 mg/kg, male): 5/5
LD5 [3, 6]: 435.75 mg/kg
LD95 [3, 6]: 2883.02 mg/kg
slope (B) [3, 6]: 4.01
LD5 [3, 7]: 543.17 mg/kg
LD95 [3, 7]: 2711.67 mg/kg
slope (B) [3, 7]: 4.711
LD5 [3, 8]: 360.92 mg/kg
LD95 [3, 8]: 2932.84 mg/kg
slope (B) [3, 8]: 3.620
LD50 [3, 6]: 1120 mg/kg
LD50 [3, 7]: 1210 mg/kg
LD50 ([3]; P.O. (per os)): 1120 mg/kg
LD50 ([3]; single dose intragastrically): 1030 mg/kg
Antigen test (IE) [4]: - (positive cells were not seen in the whole well)
Infected rate of macrophages ([5]; 50 μg/ml): 0.67
No. of parasites in 100 macrophages ([5]; 50 μg/ml): 2.67
Infected rate of macrophages ([5]; 100 μg/ml): 0
No. of parasites in 100 macrophages ([5]; 100 μg/ml): 0
Infected rate of macrophages ([5]; 200 μg/ml): 0
No. of parasites in 100 macrophages ([5]; 200 μg/ml): 0
inhibition at 50 µg/mL ([5]; 50 μg/ml, read-out: Inhibition rate (No. of parasites in 100 macrophages)): 99.5%
inhibition at 50 µg/mL ([5]; 50 μg/ml, read-out: Inhibition rate (infected rate of macrophages)): 99.1%
inhibition at 100 µg/mL ([5]; 100 μg/ml, read-out: Inhibition rate (No. of parasites in 100 macrophages)): 100%
inhibition at 100 µg/mL ([5]; 100 μg/ml, read-out: Inhibition rate (infected rate of macrophages)): 100%
inhibition at 200 µg/mL ([5]; 200 μg/ml, read-out: Inhibition rate (No. of parasites in 100 macrophages)): 100%
inhibition at 200 µg/mL ([5]; 200 μg/ml, read-out: Inhibition rate (infected rate of macrophages)): 100%
inhibition on Toxoplasma Gendei in vitro ([5]; in words): obvious inhibition on Toxoplasma Gendei in vitro

Source: patent publication US5726203A, “Qinghaosu derivatives against AIDS” (priority 1993, dated 1998)
